Experimental data published in US12509482B2, “3′-ketoglycoside compound for the slow release of a volatile alcohol” (GLYCOSCIENCE, S.L., priority 2020, dated 2025).
Where “and” joins values, the source holds several entries; their conditions need not be identical. Equal entries are not always repeated.

Tests used:
[1] = Example 16: release of geraniol from geranyl-O-β-D-3′-ketoglucopyranoside, 0.1 M deuterated phosphate buffer, 10% D6-DMSO, 37° C., presence and absence of fresh skin wash; format: physicochemical
Method: In this example the rate of release of geraniol from (2R,3S,6R)-2-(((E)-3,7-dimethylocta-2,6-dien-1-yl)oxy)-3,5-dihydroxy-6-(hydroxymethyl)tetrahydro-4H-pyran-4-one (geranyl-O-β-D-3′-ketoglucopyranoside) in 0.1 M deuterated phosphate buffer solutions of differing pH containing 10% D6-DMSO or in D2O containing 10% D6-DMSO at 37° C. in the presence and absence of fresh skin wash was determined.
1 M Stock solutions of sodium dihydrogen phosphate and disodium hydrogen phosphate were prepared in deuterated water (D2O).
A stock solution of 25 mg of geranyl-O-β-D-3′-ketoglucopyranoside in 0.5 mL of D6-DMSO were prepared.
In a typical experiment, a stock solution of fresh skin wash suspension was prepared by swabbing a 25 cm^2 areas of cheek skin of a human volunteer by robustly rubbing the area with a cotton wool gauze (5×5 cm^2) soaked in D2O (12.5 mL) for 1 minute and then resuspending the gauze in the D2O solution, rapidly shaking and removing the gauze after squeezing out as much liquid as possible with a spatula. 1 M Stock solutions phosphate buffer, pH 5.7 and 7.0 were prepared by appropriately mixing 1 M stock phosphate salts solutions to the correct pH as determined using a calibrated pH meter.
Half of each buffer stock solution was diluted ten times with D2O and the other with the above skin washing stock solution to give a 0.1 M phosphate buffer in D2O with a final pH of 5.7, 0.1 M phosphate buffer in D2O with a final pH of 7.0, a 0.1 M phosphate buffer in skin wash solution with a final pH of 5.7 and a 0.1 M phosphate buffer in skin wash solution with a final pH of 7.0.
To three parallel reaction vials, where indicated in the reaction table below, was added 0.45 mL of low or high pH 0.1 M phosphate buffer in D2O or 0.45 mL of low or high pH 0.1M phosphate buffer in skin wash solution followed by 0.05 mL of the glycoside substrate solutions in D6-DMSO and the mixtures incubated by shaking at 37° C. After times indicated in table below, the mixtures where analysed by ^1H-NMR with 128 scans using a 400 MHz instrument.

[2] = Example 17: release of geraniol from a 40 mg/mL suspension of geranyl-O-β-D-3′-ketoglucopyranoside, 0.1 M phosphate buffer pH 7, 10% DMSO, 37° C.; format: physicochemical; conditions: after 3 d
Method: In this example the rate of release of geraniol from a 40 mg/mL suspension of (2R,3S,6R)-2-(((E)-3,7-dimethylocta-2,6-dien-1-yl)oxy)-3,5-dihydroxy-6-(hydroxymethyl)tetrahydro-4H-pyran-4-one (geranyl-O-β-D-3′-ketoglucopyranoside) in 0.1 M deuterated phosphate buffer solution, pH 7, containing 10% DMSO at 37° C. was determined.
In a stoppered glass vial, geranyl-O-β-D-3′-ketoglucopyranoside (20 mg) was dissolved in D6-DMSO (0.05 mL) then diluted with 0.1 M sodium phosphate buffer, pH 7.0 (0.45 mL) and the resultant suspension incubated by shaking at 37° C.

[3] = Example 31: stability of geranyl-O-β-D-3′-ketoglucopyranoside in D2O at 50° C.; format: physicochemical; conditions: 5 mg in D2O (1 mL), 2 weeks
Method: Geranyl-O-β-D-3′-ketoglucopyranoside, obtained according to Example 4 (5 mg) was added to D2O (1 mL) and heated at 50° C.

[4] = Example 32: release of geraniol from geranyl-O-β-D-3′-ketoglucopyranoside (PEG200, L-arginine, calcium chloride solution) on a paper kitchen towel disc, room temperature; format: physicochemical
Method: Geranyl-O-β-D-3′-ketoglucopyranoside, obtained according to Example 4, (50 mg) was dissolved in polyethylene glycol 200 (PEG200) (0.1 mL) with gentle heating. 0.1 mL of a solution of L-arginine (10 mg) dissolved in 0.1 mL of a 3:7 w/v solution of anhydrous calcium chloride in water was then added and thoroughly mixed. The resultant solution was spread over a 5 cm diameter paper kitchen towel disc and left to stand at room temperature. The smell of released geraniol evolved from the disc was then assessed with time as strong, medium or weak and reported in Table XIX:
After 19 h, the reaction mixture was dissolved in D4-MeOH and analysed by 1H NMR.

[5] = tested on: Aedes albopictus mosquitoes; assay: Example 33: in vitro mosquito testing, landings on treated Hemotek membranes; format: in vivo; conditions: for Landing (total number of landings over the 20-minute exposure): 50 mg on membrane, 15 females, duplicate membranes
Method: Aedes albopictus mosquitoes were reared and maintained at 26±2° C. temperature, ≥80%±10 relative humidity, with a 12 h:12 h (light:dark) photoperiod.
Populations of adult mosquitoes were allowed to feed on sugar solution (10%) but were not blood fed before tests.
Geranyl-O-β-D-3′-ketoglucopyranoside, obtained according to Example 4, (100 mg) was dissolved in polyethylene glycol 200 (PEG200) (0.2 mL) with gentle heating to give Solution 1. Then 200 mg of L-arginine was dissolved in 2 mL of a 3:7 w/v solution of anhydrous calcium chloride in water to give Solution 2. Solution 2 (0.2 mL) was added to all of Solution 1 to give Solution 3. The contents of Solution 3 were thoroughly mixed and half of the resultant solution was applied to parallel 5 cm diameter artificial Hemotek membranes covered with paper kitchen towel of equal diameter. Parallel duplicate membranes, covered with paper kitchen towel, were also each treated with 0.2 mL of a 1:1 v/v solution of PEG200/Solution 2 and a further two parallel membranes were left untreated.
The membranes were heated over a reservoir of sheeps' blood at 37° C. using a Hemotek system and periodically exposed to 5- to 7-day old active host-seeking female mosquitoes, selected and collected using an aspirator and organized into batches (15 females) in plastic test containers. The heating was switched off between exposures to maintain membrane integrity and switched on 5 minutes prior to each exposure. Each membrane was exposed to a fresh container of female mosquitos for 20 minutes immediately after membrane preparation and again after 2 h, 4 h, 6 h and 8 h. At each time point, the number of mosquitos landing on each membrane immediately after exposure and 5, 10 and 20 minutes after exposure was counted and the total number of landings over each 20-minute exposure summed and tabulated.

[6] = Description: alcohol release from model compounds (III), (IV) and compound (V) in buffer, water and skin washings; format: physicochemical
[7] = tested on: mosquito Culex pipiens pallens; conditions: Park et al., J. Am. Mosquito Control Assoc., 2005; cited from earlier work

CC(C)=CCC/C(C)=C/CO[C@@H]1O[C@H](CO)[C@@H](O)C(=O)[C@H]1O [geranyl-O-β-D-3′-ketoglucopyranoside, (2R,3S,6R)-2-(((E)-3,7-dimethylocta-2,6-dien-1-yl)oxy)-3,5-dihydroxy-6-(hydroxymethyl)tetrahydro-4H-pyran-4-one]
% Conversion by 1H-NMR ([1]; 0.1M buffer in D2O, final pH 5.7, 19 h): 3%
% Conversion by 1H-NMR ([1]; 0.1M buffer in D2O, final pH 5.7, 41 h): 6%
% Conversion by 1H-NMR ([1]; 0.1M buffer in D2O, final pH 5.7, 72 h): 10%
% Conversion by 1H-NMR ([1]; 0.1M buffer in D2O, final pH 7.0, 19 h): 9%
% Conversion by 1H-NMR ([1]; 0.1M buffer in D2O, final pH 7.0, 41 h): 28%
% Conversion by 1H-NMR ([1]; 0.1M buffer in D2O, final pH 7.0, 72 h): 51%
% Conversion by 1H-NMR ([1]; 0.1M buffer in skin wash solution, final pH 7.0, 19 h): 10%
% Conversion by 1H-NMR ([1]; 0.1M buffer in skin wash solution, final pH 7.0, 41 h): 31%
% Conversion by 1H-NMR ([1]; 0.1M buffer in skin wash solution, final pH 7.0, 72 h): 48%
pH dependence of geraniol release (in words) ([1]; 37° C., presence or absence of skin wash): only slowly degraded at pH 5.8, but releases geraniol at a significantly higher rate at pH 7.4 that is unchanged in the presence or absence of skin wash
extent of conversion to geraniol by 1H-NMR [2]: approximately 50%
smell of geraniol [2]: a strong smell of geraniol was observed
stability in D2O by 1H NMR (in words) [3]: stable
Geraniol strength by smell ([4]; 0 h): strong
Geraniol strength by smell ([4]; 0.3 h): strong
Geraniol strength by smell ([4]; 2 h): strong
Geraniol strength by smell ([4]; 3 h): strong
Geraniol strength by smell ([4]; 4 h): strong
Geraniol strength by smell ([4]; 6 h): strong
Geraniol strength by smell ([4]; 11 h): medium
Geraniol strength by smell ([4]; 19 h): medium
Landing (total number of landings over the 20-minute exposure) ([5]; 6 h, listed as GS0010): 4 and 3
Landing (total number of landings over the 20-minute exposure) ([5]; 8 h): 0
repellent effect (conclusion in words) ([5]; in vivo): a repellent effect is provided
landings compared with diluent treated or untreated membranes (in words) ([5]; over 8 h): significantly fewer landings than observed with diluent treated or untreated membranes
degradation rate compared with compound (III) (in words) [6]: degraded significantly faster than compound (III)
aroma of geraniol on opening the stoppered reaction vessel ([6]; 20 mg/mL mixture, after 3 d): a very pungent aroma of geraniol was immediately noticeable
degraded ([6]; after 3 days): approximately 50%

Cc1ccc(C(C)C)cc1O [Carvacrol, 2-methyl-5-propan-2-ylphenol]
repellency compared with DEET (in words) [7]: outperformed N,N-diethyl-m-methylbenzamide (DEET)
